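Cells were grown in 96-well plates and exposed to each compound for 48 hours at five concentrations; endpoints were interpolated linearly between bracketing concentrations, or set to the highest concentration if not reached. GI50: concentration for 50% inhibition of growth.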 Active and inactive are the calls of the source. Cut-off read from the data, not from the text of the source: active = GI50 up to about 1.1 µM and inactive = higher.
Assays:
Assay in all cases: NCI anticancer screen, dose series, 48 h
Malme-3M = system: Malme-3M
SK-MEL-28 = system: SK-MEL-28
SW-620 = system: SW-620
COLO 205 = system: COLO 205
TK-10 = system: TK-10
HT-29 = system: HT-29
LOX IMVI = system: LOX IMVI
OVCAR-8 = system: OVCAR-8
HL-60 = system: HL-60
SNB-75 = system: SNB-75
OVCAR-3 = system: OVCAR-3
HCT-116 = system: HCT-116
SF-295 = system: SF-295
SNB-19 = system: SNB-19
MOLT-4 = system: MOLT-4
RXF 393 = system: RXF 393

| Compound | GI50 (Malme-3M) | GI50 (SK-MEL-28) | GI50 (SW-620) | GI50 (COLO 205) | GI50 (TK-10) | GI50 (HT-29) | GI50 (LOX IMVI) | GI50 (OVCAR-8) | GI50 (HL-60) | GI50 (SNB-75) | GI50 (OVCAR-3) | GI50 (HCT-116) | GI50 (SF-295) | GI50 (SNB-19) | GI50 (MOLT-4) | GI50 (RXF 393) |
| --- | --- | --- | --- | --- | --- | --- | --- | --- | --- | --- | --- | --- | --- | --- | --- | --- |
| C=CCc1cc(-c2cc(CC=C)c(O)c(CNC)c2)cc(CNC)c1O | 18.7 µM (inactive) | 19.5 µM (inactive) | 17.3 µM (inactive) | 18.5 µM (inactive) | 17.7 µM (inactive) | 15.3 µM (inactive) | 13.3 µM (inactive) | 17.6 µM (inactive) | 14.9 µM (inactive) | 11 µM (inactive) | 14.7 µM (inactive) | 14.7 µM (inactive) | 16.9 µM (inactive) | 13.3 µM (inactive) | 10.9 µM (inactive) | – |
| COc1ccc(/C=N/N=C(\N)NO)cc1O | 16.6 µM (inactive) | 49.8 µM (inactive) | 44.7 µM (inactive) | 25.8 µM (inactive) | – | 40.9 µM (inactive) | 26.7 µM (inactive) | – | – | – | – | 37.5 µM (inactive) | – | > 100 µM (inactive) | > 100 µM (inactive) | 41.7 µM (inactive) |
| N#CC1CC2(C(=O)C1=O)c1ccccc1-c1ccccc12 (configuration not stated) | > 100 µM (inactive) | > 100 µM (inactive) | > 100 µM (inactive) | > 100 µM (inactive) | > 100 µM (inactive) | > 100 µM (inactive) | > 100 µM (inactive) | > 100 µM (inactive) | > 100 µM (inactive) | > 100 µM (inactive) | 87.7 µM (inactive) | > 100 µM (inactive) | > 100 µM (inactive) | > 100 µM (inactive) | > 100 µM (inactive) | > 100 µM (inactive) |
| N#CC(C#N)=C1SCC(=O)CS1 | > 100 µM (inactive) | – | > 100 µM (inactive) | > 100 µM (inactive) | > 100 µM (inactive) | > 100 µM (inactive) | > 100 µM (inactive) | > 100 µM (inactive) | > 100 µM (inactive) | 89.1 µM (inactive) | > 100 µM (inactive) | > 100 µM (inactive) | > 100 µM (inactive) | > 100 µM (inactive) | > 100 µM (inactive) | > 100 µM (inactive) |
| C=Cc1c(-c2ccccc2)cnc2[nH]c3ccccc3c12 | > 50 µM (inactive) | > 50 µM (inactive) | > 50 µM (inactive) | > 50 µM (inactive) | > 50 µM (inactive) | > 50 µM (inactive) | > 50 µM (inactive) | > 50 µM (inactive) | > 50 µM (inactive) | 6.59 µM (inactive) | > 50 µM (inactive) | > 50 µM (inactive) | > 50 µM (inactive) | > 50 µM (inactive) | > 50 µM (inactive) | > 50 µM (inactive) |
| Cc1cccc2c1CCC21OC(=O)c2c1ccc1ccccc21 (configuration not stated) | 20 µM (inactive) | 58.2 µM (inactive) | 39.2 µM (inactive) | 47 µM (inactive) | 36.1 µM (inactive) | 35.3 µM (inactive) | 54.8 µM (inactive) | 85.9 µM (inactive) | 22.1 µM (inactive) | 82.6 µM (inactive) | 26 µM (inactive) | 52.2 µM (inactive) | 55.5 µM (inactive) | 90.4 µM (inactive) | 24.3 µM (inactive) | 64 µM (inactive) |
| c1ccc2c(NCCCCCCCCNc3cccc4ccccc34)cccc2c1 | 22 µM (inactive) | 19.5 µM (inactive) | 21.1 µM (inactive) | 18.6 µM (inactive) | 24.3 µM (inactive) | 32.4 µM (inactive) | – | 24.5 µM (inactive) | 22.7 µM (inactive) | 21.4 µM (inactive) | 34 µM (inactive) | 19.8 µM (inactive) | > 100 µM (inactive) | > 100 µM (inactive) | 16.7 µM (inactive) | – |
| CC(=O)Oc1ccccc1C(=O)C1c2cccc(O)c2C(=O)c2c(O)cccc21 | 1.95 µM (inactive) | 1.64 µM (inactive) | 0.445 µM (active) | 0.705 µM (active) | 3.65 µM (inactive) | 2.59 µM (inactive) | 1.62 µM (inactive) | 1.23 µM (inactive) | 0.222 µM (active) | 0.695 µM (active) | 0.593 µM (active) | 0.897 µM (active) | 0.682 µM (active) | 0.416 µM (active) | 1.46 µM (inactive) | 0.423 µM (active) |
| CCCC(O)c1cn(-c2cccc(S(=O)(=O)O)c2)nn1 (configuration not stated) | > 100 µM (inactive) | > 100 µM (inactive) | > 100 µM (inactive) | > 100 µM (inactive) | > 100 µM (inactive) | > 100 µM (inactive) | > 100 µM (inactive) | > 100 µM (inactive) | > 100 µM (inactive) | > 100 µM (inactive) | > 100 µM (inactive) | > 100 µM (inactive) | > 100 µM (inactive) | > 100 µM (inactive) | > 100 µM (inactive) | > 100 µM (inactive) |
| CCc1cccc(CC)c1NC(=O)C1=C(C)NC(C)=C(C(=O)Nc2c(CC)cccc2CC)C1c1ccc2c(c1)OCO2 | 14.9 µM (inactive) | 20 µM (inactive) | 17 µM (inactive) | 13.4 µM (inactive) | 33.6 µM (inactive) | 15.9 µM (inactive) | 12.7 µM (inactive) | 18.5 µM (inactive) | 8 µM (inactive) | 18.8 µM (inactive) | 13.9 µM (inactive) | 18.2 µM (inactive) | 13.9 µM (inactive) | 17.4 µM (inactive) | 56.8 µM (inactive) | – |
| CC(C)(C)NNC(=O)/C(=C/c1ccc([N+](=O)[O-])cc1)NC(=O)c1ccccc1 | > 100 µM (inactive) | > 100 µM (inactive) | – | 29 µM (inactive) | > 100 µM (inactive) | > 100 µM (inactive) | 17.2 µM (inactive) | > 100 µM (inactive) | 44.8 µM (inactive) | > 100 µM (inactive) | > 100 µM (inactive) | > 10 µM (inactive) | > 100 µM (inactive) | > 100 µM (inactive) | 41.3 µM (inactive) | > 100 µM (inactive) |
| C/C(=N/Nc1ccc([N+](=O)[O-])cc1[N+](=O)[O-])C(CC(C(=O)Nc1ccccc1C)/C(C)=N\Nc1ccc([N+](=O)[O-])cc1[N+](=O)[O-])C(=O)Nc1ccccc1C (configuration not stated) | 22.5 µM (inactive) | 21.9 µM (inactive) | 18.8 µM (inactive) | 12.8 µM (inactive) | 17.9 µM (inactive) | 14.8 µM (inactive) | 14.4 µM (inactive) | 6 µM (inactive) | 1.19 µM (inactive) | 10.1 µM (inactive) | 7.06 µM (inactive) | 13.5 µM (inactive) | 16.1 µM (inactive) | 14 µM (inactive) | – | 6.49 µM (inactive) |
| N#CCC(=O)N1CCCCCCC1 | > 100 µM (inactive) | > 100 µM (inactive) | 5.87 µM (inactive) | 14.1 µM (inactive) | > 100 µM (inactive) | 29.6 µM (inactive) | > 100 µM (inactive) | – | 28.2 µM (inactive) | – | – | > 100 µM (inactive) | > 100 µM (inactive) | > 100 µM (inactive) | – | > 100 µM (inactive) |
| O=C(COC(=O)c1cccc2c(=O)c3ccccc3[nH]c12)Nc1ccc(Cl)cc1 | > 100 µM (inactive) | > 100 µM (inactive) | 85.5 µM (inactive) | > 100 µM (inactive) | 13.1 µM (inactive) | 67.9 µM (inactive) | 23.2 µM (inactive) | > 100 µM (inactive) | 11.6 µM (inactive) | 24.3 µM (inactive) | > 100 µM (inactive) | 13.6 µM (inactive) | 25.5 µM (inactive) | 35 µM (inactive) | 26.3 µM (inactive) | 16.8 µM (inactive) |
| O=C(NC12CC3CC(CC(F)(C3)C1)C2)c1ccccc1 | > 100 µM (inactive) | > 100 µM (inactive) | > 100 µM (inactive) | > 100 µM (inactive) | > 100 µM (inactive) | > 100 µM (inactive) | > 100 µM (inactive) | > 100 µM (inactive) | > 100 µM (inactive) | 43.9 µM (inactive) | > 100 µM (inactive) | > 100 µM (inactive) | – | > 100 µM (inactive) | > 100 µM (inactive) | > 100 µM (inactive) |
| CCN(CC)Cc1cc(Nc2c3ccccc3nc3c2[nH]c2ccccc23)ccc1O | 1.9 µM (inactive) | 1.8 µM (inactive) | 0.912 µM (active) | 1.02 µM (active) | 3.61 µM (inactive) | 0.52 µM (active) | 1.22 µM (inactive) | 1.08 µM (active) | 2.16 µM (inactive) | 1.59 µM (inactive) | – | 0.345 µM (active) | 1.37 µM (inactive) | 1.63 µM (inactive) | 0.508 µM (active) | 1.31 µM (inactive) |
| COc1ccc(C(=O)C/C(=N/NC(N)=S)C(=O)Nc2ccccc2)cc1 | > 100 µM (inactive) | > 100 µM (inactive) | > 100 µM (inactive) | > 100 µM (inactive) | > 100 µM (inactive) | > 100 µM (inactive) | > 100 µM (inactive) | > 100 µM (inactive) | > 100 µM (inactive) | 99.3 µM (inactive) | > 100 µM (inactive) | > 100 µM (inactive) | > 100 µM (inactive) | > 100 µM (inactive) | > 100 µM (inactive) | > 100 µM (inactive) |
| COC(=O)C1=C(C)C(=O)[C@H]2C(C(=O)OC)CCCC[C@@H]12 (some centres not stated) | > 100 µM (inactive) | > 100 µM (inactive) | > 100 µM (inactive) | > 100 µM (inactive) | > 100 µM (inactive) | > 100 µM (inactive) | – | > 100 µM (inactive) | 30.2 µM (inactive) | > 100 µM (inactive) | – | 83.9 µM (inactive) | > 100 µM (inactive) | > 100 µM (inactive) | 54.6 µM (inactive) | > 100 µM (inactive) |

Source: ChEMBL document CHEMBL1201862, “PubChem BioAssay data set” (2004)
